Reference: ChEMBL document CHEMBL5291721, “A preclinical secondary pharmacology resource illuminates target-adverse drug reaction associations of marketed drugs” (Nat Commun, 2023)

Assays:
Adenosine receptor A1 = biological target: T1, Adenosine receptor A1 (Homo sapiens, UniProt P30542)
T1 sequence (P30542 whole entry): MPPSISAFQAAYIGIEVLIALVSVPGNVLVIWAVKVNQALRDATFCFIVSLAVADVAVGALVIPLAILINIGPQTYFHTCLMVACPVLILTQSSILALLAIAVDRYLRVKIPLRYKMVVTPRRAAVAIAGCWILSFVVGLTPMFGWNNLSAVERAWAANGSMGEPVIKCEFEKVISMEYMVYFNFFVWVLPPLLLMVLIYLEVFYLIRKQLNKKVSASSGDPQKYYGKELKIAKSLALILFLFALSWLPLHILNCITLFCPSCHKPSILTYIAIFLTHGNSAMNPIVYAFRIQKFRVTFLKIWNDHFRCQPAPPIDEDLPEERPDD

[1] = biological target: 3',5'-cyclic-AMP phosphodiesterase 4D (Homo sapiens, UniProt Q08499); assay type: functional
[2] = biological target: Sodium-dependent dopamine transporter (Homo sapiens, UniProt Q01959)
Adenosine receptor A3 = biological target: T2, Adenosine receptor A3 (Homo sapiens, UniProt P0DMS8)
T2 sequence (P0DMS8 whole entry): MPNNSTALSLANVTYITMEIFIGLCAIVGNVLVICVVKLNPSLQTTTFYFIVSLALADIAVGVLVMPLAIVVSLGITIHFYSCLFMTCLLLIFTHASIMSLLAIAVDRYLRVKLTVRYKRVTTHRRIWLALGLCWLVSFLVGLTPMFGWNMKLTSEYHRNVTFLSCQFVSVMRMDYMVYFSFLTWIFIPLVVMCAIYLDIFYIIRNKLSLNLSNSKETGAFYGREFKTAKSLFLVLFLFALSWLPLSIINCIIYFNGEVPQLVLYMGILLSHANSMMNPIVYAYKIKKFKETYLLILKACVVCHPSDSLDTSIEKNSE

[3] = biological target: T3, 5-hydroxytryptamine receptor 2B (Homo sapiens, UniProt P41595); assay type: functional, cell-based
Adenosine receptor A2a = Adenosine receptor A2a (Homo sapiens, UniProt P29274)
[4] = biological target: T4, Muscarinic acetylcholine receptor M2 (Homo sapiens, UniProt P08172); assay type: functional, cell-based
T4 sequence (P08172 whole entry): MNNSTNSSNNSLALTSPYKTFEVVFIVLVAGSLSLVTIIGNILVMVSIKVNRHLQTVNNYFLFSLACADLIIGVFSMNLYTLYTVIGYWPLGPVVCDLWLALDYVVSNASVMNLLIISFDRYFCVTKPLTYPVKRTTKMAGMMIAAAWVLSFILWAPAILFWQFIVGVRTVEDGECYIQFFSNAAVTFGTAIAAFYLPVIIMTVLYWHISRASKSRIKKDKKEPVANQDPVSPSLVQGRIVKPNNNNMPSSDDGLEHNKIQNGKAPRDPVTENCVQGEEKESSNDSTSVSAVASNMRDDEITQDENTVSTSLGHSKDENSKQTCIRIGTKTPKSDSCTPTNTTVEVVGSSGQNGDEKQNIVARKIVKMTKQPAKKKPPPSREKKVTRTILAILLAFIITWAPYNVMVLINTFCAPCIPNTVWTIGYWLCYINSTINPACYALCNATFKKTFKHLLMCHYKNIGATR

Melanocortin receptor 3 = Melanocortin receptor 3 (Homo sapiens, UniProt P41968)
[5] = biological target: T5, Neuropeptide Y receptor type 1 (Homo sapiens, UniProt P25929)
T5 sequence (P25929 whole entry): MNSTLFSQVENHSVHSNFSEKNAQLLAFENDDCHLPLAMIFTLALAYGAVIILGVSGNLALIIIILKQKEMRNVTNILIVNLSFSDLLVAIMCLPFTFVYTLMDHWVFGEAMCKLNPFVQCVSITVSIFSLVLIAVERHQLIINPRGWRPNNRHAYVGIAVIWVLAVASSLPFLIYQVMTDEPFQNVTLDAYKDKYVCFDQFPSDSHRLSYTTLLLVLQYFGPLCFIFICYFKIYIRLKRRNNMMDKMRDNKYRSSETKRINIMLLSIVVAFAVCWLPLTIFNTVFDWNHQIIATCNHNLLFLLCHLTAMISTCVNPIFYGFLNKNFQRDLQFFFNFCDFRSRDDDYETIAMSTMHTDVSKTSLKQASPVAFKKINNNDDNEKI

[6] = biological target: Delta-type opioid receptor (Homo sapiens, UniProt P41143)
Cannabinoid receptor 1 = Cannabinoid receptor 1 (Homo sapiens, UniProt P21554); assay type: functional, cell-based
[7] = biological target: T6, Alpha-2C adrenergic receptor (Homo sapiens, UniProt P18825); assay type: functional
T6 sequence (P18825 whole entry): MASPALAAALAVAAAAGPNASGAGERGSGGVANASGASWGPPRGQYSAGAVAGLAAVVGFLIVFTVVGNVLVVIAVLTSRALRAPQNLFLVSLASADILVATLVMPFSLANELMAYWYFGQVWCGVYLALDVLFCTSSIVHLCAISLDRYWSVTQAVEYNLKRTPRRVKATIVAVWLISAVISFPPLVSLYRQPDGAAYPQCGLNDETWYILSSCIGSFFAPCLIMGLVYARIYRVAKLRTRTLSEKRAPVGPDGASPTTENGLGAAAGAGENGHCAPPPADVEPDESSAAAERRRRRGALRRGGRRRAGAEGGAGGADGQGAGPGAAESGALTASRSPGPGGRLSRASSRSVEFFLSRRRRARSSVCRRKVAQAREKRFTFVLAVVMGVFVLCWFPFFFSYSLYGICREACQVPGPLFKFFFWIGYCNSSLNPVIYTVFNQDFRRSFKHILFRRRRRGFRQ

[8] = biological target: T4, Muscarinic acetylcholine receptor M2; assay type: functional, cell-based; remark: listed apart in the source
[9] = biological target: T3, 5-hydroxytryptamine receptor 2B; assay type: functional, cell-based; remark: listed apart in the source
[10] = biological target: Sodium-dependent noradrenaline transporter (Homo sapiens, UniProt P23975)
[11] = biological target: Glutamate receptor ionotropic, NMDA 1 (Rattus norvegicus, UniProt P35439)
[12] = biological target: Gamma-aminobutyric acid receptor subunit alpha-1 (Rattus norvegicus, UniProt P62813)
Also: assay procedure not described here.

Chain of Adenosine receptor A2a (P29274 whole entry): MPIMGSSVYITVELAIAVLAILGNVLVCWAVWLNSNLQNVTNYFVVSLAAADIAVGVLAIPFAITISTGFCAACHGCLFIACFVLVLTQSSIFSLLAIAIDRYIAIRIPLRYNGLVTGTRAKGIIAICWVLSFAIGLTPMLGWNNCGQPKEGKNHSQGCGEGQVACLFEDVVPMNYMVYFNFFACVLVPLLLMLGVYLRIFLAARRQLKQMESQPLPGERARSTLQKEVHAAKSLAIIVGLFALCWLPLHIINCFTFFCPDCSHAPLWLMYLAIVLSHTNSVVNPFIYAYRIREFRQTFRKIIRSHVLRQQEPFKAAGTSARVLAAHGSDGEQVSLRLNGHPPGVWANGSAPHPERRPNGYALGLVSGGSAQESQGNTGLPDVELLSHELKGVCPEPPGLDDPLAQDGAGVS
Chain of Gamma-aminobutyric acid receptor subunit alpha-1 (P62813 whole entry): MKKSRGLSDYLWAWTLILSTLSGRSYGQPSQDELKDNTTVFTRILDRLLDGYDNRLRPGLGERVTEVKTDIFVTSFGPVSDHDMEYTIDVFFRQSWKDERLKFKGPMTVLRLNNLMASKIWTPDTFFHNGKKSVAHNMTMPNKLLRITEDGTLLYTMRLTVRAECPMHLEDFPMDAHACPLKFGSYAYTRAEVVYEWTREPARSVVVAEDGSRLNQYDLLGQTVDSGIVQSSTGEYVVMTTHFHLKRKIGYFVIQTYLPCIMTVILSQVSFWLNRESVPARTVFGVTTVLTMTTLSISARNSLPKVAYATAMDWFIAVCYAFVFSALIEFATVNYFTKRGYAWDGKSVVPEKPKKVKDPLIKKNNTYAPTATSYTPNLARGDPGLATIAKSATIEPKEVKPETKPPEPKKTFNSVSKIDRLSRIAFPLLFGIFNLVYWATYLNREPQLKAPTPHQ
Chain of Delta-type opioid receptor (P41143 whole entry): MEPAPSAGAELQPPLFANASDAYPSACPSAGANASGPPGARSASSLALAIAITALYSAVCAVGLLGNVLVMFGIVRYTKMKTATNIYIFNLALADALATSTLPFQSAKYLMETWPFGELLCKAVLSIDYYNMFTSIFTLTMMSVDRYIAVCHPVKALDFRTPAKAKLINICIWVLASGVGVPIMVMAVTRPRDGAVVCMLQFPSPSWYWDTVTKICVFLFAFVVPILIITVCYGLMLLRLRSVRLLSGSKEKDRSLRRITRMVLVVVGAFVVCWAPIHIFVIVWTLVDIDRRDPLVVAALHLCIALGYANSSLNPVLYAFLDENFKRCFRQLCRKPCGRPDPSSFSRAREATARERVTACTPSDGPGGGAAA
Chain of Sodium-dependent noradrenaline transporter (P23975 whole entry): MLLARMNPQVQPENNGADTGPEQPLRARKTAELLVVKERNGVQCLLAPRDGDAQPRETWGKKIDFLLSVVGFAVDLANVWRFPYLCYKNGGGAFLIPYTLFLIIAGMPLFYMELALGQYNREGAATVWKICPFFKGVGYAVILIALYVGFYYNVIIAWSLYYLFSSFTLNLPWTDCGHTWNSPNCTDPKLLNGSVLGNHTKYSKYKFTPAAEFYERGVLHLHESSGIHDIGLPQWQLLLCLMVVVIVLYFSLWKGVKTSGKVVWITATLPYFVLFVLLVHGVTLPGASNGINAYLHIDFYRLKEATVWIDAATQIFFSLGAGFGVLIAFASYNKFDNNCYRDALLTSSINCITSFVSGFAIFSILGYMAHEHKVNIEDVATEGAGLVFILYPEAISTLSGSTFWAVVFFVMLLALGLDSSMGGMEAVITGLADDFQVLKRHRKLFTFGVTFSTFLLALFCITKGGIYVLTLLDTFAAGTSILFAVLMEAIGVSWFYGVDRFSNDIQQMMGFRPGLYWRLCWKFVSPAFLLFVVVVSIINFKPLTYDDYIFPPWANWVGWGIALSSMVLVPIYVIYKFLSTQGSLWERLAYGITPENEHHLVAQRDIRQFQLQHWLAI
Chain of Cannabinoid receptor 1 (P21554 whole entry): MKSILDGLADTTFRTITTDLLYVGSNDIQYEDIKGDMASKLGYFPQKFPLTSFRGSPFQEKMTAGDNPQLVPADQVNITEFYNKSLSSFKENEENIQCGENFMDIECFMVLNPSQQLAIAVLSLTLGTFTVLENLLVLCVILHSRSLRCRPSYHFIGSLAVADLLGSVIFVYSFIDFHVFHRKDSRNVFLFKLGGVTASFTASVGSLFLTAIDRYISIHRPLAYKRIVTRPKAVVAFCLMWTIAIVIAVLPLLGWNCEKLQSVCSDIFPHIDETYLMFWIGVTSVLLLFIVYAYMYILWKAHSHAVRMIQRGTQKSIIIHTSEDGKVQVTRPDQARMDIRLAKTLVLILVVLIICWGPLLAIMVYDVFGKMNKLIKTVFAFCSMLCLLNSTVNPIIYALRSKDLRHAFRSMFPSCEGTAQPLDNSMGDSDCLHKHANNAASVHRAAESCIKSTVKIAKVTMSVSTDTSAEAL
Chain of 3',5'-cyclic-AMP phosphodiesterase 4D (Q08499 whole entry): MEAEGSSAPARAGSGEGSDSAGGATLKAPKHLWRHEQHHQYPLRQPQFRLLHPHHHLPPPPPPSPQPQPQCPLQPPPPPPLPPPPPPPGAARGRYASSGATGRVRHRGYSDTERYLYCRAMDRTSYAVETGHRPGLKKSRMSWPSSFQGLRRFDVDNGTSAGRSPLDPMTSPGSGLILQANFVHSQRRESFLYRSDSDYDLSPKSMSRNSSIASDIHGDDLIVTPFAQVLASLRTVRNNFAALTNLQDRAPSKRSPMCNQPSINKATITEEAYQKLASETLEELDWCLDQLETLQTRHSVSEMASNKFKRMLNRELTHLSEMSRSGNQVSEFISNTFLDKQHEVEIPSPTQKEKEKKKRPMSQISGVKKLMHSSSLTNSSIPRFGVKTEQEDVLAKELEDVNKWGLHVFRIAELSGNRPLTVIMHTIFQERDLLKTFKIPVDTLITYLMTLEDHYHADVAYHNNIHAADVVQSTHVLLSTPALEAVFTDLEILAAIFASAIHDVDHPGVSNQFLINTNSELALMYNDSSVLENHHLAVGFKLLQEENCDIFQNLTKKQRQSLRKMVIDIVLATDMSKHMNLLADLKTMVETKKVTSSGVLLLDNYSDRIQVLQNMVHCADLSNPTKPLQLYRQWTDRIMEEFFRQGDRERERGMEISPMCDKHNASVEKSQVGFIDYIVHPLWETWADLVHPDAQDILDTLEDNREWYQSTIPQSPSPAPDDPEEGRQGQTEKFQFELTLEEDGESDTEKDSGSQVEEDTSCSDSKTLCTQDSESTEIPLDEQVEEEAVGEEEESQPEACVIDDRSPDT
T3 sequence (P41595 whole entry): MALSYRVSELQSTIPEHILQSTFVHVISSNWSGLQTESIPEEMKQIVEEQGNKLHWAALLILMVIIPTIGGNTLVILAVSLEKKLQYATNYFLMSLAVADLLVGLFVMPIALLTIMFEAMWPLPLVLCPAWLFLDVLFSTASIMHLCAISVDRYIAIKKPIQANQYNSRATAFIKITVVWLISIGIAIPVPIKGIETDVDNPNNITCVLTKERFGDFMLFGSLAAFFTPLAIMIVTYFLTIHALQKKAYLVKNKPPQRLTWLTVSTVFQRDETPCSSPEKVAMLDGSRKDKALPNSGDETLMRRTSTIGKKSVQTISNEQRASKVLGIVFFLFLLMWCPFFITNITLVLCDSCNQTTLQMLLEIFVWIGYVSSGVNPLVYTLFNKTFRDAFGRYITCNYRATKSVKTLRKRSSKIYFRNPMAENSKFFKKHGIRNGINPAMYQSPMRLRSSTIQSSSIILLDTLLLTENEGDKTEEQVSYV
Chain of Sodium-dependent dopamine transporter (Q01959 whole entry): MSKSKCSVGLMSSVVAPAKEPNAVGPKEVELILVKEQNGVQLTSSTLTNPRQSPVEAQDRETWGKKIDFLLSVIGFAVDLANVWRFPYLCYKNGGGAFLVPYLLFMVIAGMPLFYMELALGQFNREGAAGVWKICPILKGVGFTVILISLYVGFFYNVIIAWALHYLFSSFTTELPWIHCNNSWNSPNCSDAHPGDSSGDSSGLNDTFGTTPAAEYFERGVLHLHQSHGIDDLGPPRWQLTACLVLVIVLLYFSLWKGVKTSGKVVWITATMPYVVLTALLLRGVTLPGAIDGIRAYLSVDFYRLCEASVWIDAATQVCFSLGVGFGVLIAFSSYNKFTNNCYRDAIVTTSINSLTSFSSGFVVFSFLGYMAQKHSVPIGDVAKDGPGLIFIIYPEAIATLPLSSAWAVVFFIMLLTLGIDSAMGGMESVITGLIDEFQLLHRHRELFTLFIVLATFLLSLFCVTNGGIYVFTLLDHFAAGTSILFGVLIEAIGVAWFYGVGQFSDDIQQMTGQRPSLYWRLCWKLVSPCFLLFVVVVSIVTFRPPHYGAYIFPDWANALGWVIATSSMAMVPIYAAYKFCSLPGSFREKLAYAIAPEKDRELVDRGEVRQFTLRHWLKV
Chain of Melanocortin receptor 3 (P41968 whole entry): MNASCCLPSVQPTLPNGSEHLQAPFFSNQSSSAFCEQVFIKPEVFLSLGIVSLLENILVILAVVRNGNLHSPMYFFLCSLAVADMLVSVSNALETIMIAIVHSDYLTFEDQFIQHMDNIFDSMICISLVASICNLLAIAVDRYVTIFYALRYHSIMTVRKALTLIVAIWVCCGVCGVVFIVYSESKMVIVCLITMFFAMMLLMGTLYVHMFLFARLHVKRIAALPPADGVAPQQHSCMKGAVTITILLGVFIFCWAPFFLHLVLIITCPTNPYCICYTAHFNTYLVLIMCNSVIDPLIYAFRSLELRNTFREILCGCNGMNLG

Structure (SMILES) | AC50 (Adenosine receptor A1) [µM] | AC50 [1] [µM] | AC50 [2] [µM] | AC50 (Adenosine receptor A3) [µM] | AC50 [3] [µM] | AC50 (Adenosine receptor A2a) [µM] | AC50 [4] [µM] | AC50 (Melanocortin receptor 3) [µM] | AC50 [5] [µM] | AC50 [6] [µM] | AC50 (Cannabinoid receptor 1) [µM] | AC50 [7] [µM] | AC50 [8] [µM] | AC50 [9] [µM] | AC50 [10] [µM] | AC50 [11] [µM] | AC50 [12] [µM]
C=CCCCCCCCCC(=O)O [UNDECYLENIC ACID] | > 30 |  |  |  |  |  |  |  |  |  |  |  |  |  |  |  | 
Clc1cc(Cl)c(OCC#CI)cc1Cl [HALOPROGIN] | 15.4 |  |  |  |  |  |  |  |  |  |  |  |  |  |  |  | 
CC[C@@H](C(N)=O)N1CCCC1=O |  | > 30 | > 30 | > 30 | > 30 | > 30 | > 30 | > 30 | > 30 | > 30 | > 30 | > 30 | > 30 | > 30 | > 30 | > 30 | 
O=[N+]([O-])c1cn2c(n1)OC[C@@H](OCc1ccc(OC(F)(F)F)cc1)C2 [PRETOMANID] |  | > 10 | > 10 | > 30 |  | > 30 |  | > 30 | > 30 | > 10 |  | > 10 |  |  | > 10 | > 10 | > 10
CN(C)CCC=C1c2ccccc2C=Cc2ccccc21 [CYCLOBENZAPRINE] |  | > 30 | > 30 | > 30 | 1.25 | > 30 |  | > 30 | > 30 | > 30 | > 30 | 3.9 |  | > 10 | 0.378 | > 10 | > 10
CCOc1ccc(Cc2cc([C@@H]3O[C@H](CO)[C@@H](O)[C@H](O)[C@H]3O)ccc2Cl)cc1 [DAPAGLIFLOZIN] |  | > 30 | > 30 | > 30 |  | > 30 |  | > 30 | > 30 | > 30 |  | > 10 |  |  | > 30 | > 10 | > 10
O=C(Oc1ccc2c(c1)CCCN2C(=O)C(Cl)Cl)c1ccco1 [QUINFAMIDE] | 29.4 |  |  |  |  |  |  |  |  |  |  |  |  |  |  |  | 
CC(C)(C)C(=O)OCOC(=O)[C@@H]1N2C(=O)[C@@H](NC(=O)[C@H](N)c3ccccc3)[C@H]2SC1(C)C [PIVAMPICILLIN] | > 30 |  |  |  |  |  |  |  |  |  |  |  |  |  |  |  | 
CCOc1ccccc1OCC1CNCCO1 (configuration not stated) [VILOXAZINE] |  | > 30 | > 10 | > 30 | > 10 | > 30 | > 10 | > 30 | > 30 | > 10 | > 30 | > 10 | > 10 | > 10 | 0.97 | > 10 | > 10
CN(C)CCc1c[nH]c2ccc(C[C@H]3COC(=O)N3)cc12 [ZOLMITRIPTAN] |  | > 30 | > 30 | > 30 | > 30 | > 30 | > 30 | > 30 | > 30 | > 10 | > 30 | > 30 | > 30 | > 30 | > 30 | > 30 | > 30
